Laboratory results taken from paper PMC11997999, “Uncovering α-Selectivity for Liver X Receptor Agonists for Lipotoxic Cancer Therapies” (Journal of Medicinal Chemistry, 2025).

Experiments:
Hep3B cells = test: Oxidative stress in Hep3B cells (CellROX Green Reagent, FACS); format: cell-based, human; conditions: 3 days, 3 μM LXR agonist + 1 μM sorafenib
Procedure: We previously described that our established lipotoxic therapy triggers oxidative stress and an ER stress response, which finally leads to apoptosis in tumor cells.[6]
The determination of oxidative stress levels was performed using CellROX Green Reagent from Thermo Fischer Scientific in Hep3B cells. Measurement of green fluorescence was performed using the FACS LSRFortessa cell analyzer (BD Bioscience, Flow Cytometry Core Facility Tuebingen) after 3 days of treatment. Data were collected using DIVA software (v9.0.1).

LXRβ = target: T1, LXRβ (Homo sapiens, UniProt P55055); test: LXRβ-specific LXRE-GFP reporter assay in Hep3B cells (NR1H3 knockout); format: cell-based; conditions: 48h of treatment, GFP by FACS
T1 construct: To measure the activity of the remaining isoform under treatment; endogenous in cells; host or cells: Hep3B (NR1H3 knockout, LXRE-GFP reporter)
T1 sequence (P55055 1-460): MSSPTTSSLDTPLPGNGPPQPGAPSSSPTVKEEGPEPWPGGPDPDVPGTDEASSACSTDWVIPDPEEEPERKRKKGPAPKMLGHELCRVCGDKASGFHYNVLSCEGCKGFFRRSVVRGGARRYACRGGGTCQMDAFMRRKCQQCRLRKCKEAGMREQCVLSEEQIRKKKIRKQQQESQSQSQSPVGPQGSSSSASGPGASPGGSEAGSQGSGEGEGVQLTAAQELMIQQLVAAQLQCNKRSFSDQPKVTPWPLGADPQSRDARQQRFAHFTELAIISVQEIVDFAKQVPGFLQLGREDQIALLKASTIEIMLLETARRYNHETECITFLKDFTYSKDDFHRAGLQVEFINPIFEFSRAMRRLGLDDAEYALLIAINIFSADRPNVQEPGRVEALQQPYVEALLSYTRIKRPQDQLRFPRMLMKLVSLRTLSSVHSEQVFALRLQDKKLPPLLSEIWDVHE

BNL CL.2 cells = test: Cell viability analysis in untransformed liver cells BNL CL.2 (CellTiter-Glo); format: cell-based; conditions: BNL CL.2, 5d, with 2 μM sorafenib
Procedure: To further determine the therapeutic potential of compound 40, we analyzed the effect of a combinatorial lipotoxic therapy with this agonist in untransformed liver cells. We applied the well-established untransformed liver cell lines AML12 and BNL CL.2 and subjected them to treatment with 40 in combination with sorafenib.
For organoid treatment studies, digestion of organoids was performed using TrypLE Express (Gibco) supplemented with 100 μg/mL DNaseI and 10.5 μM Y-27632 dihydrochloride (Invitrogen) at 37 °C, and afterward, single-cells were plated in white 96 well plates (Sarstedt) in a mixture of 10% Matrigel (Growth Factor Reduced (GFR) Matrigel, Corning) in culture medium. Cell viability was determined after 5 days of treatment using the CellTiter-Glo 3D Cell Viability Assay Kit (Promega). Cell viability of Hep3B, AML12, and BNL CL.2 cells was determined after 5 days of treatment in white 96 well plates (Sarstedt) using the CellTiter-Glo 2.0 Cell Viability Assay Kit (Promega). AML12 and BNL CL.2 cells were also obtained from the American Type Culture Collection. The luminescence signal was measured using an […] M PLEX plate reader (Tecan) and the Tecan i-control software (v3.9.1). Sodium oleate (Selleckchem) was dissolved in methanol and added to cells at a final concentration of 200 μM.

[1] = test system: SOD1, GADD34 and CHOP (GADD153); test: Western blot of oxidative stress and ER stress response factors in Hep3B cells; format: cell-based, human; conditions: 3 days, with 2 μM sorafenib
Procedure: Proteins were extracted from cells using RIPA buffer, separated by SDS-PAGE, and transferred to PVDF membranes (Amersham Hybond ECL). For protein detection, membranes were incubated with antibodies against LXRα (Novus Biologicals, NBP2–17186, dilution: 1:1000), LXRβ (Cell Signaling Technology, 13519S, clone: D6M9D, dilution: 1:1000), CHOP (Cell Signaling, 2895 (L63F7), dilution: 1:1000), GADD34 (Proteintech, 10449–1-AP, dilution: 1:1000), SOD1 (ThermoFisher Scientific, MA1–105, clone: 8B10, dilution: 1:1000), α-tubulin (Cell Signaling, 2125 clone: 11H10, dilution: 1:5000), and vinculin (Sigma-Aldrich V9131, clone: hVIN-1, dilution: 1:5000) and visualized using the ChemiDoc MP imaging system (Bio-Rad, ImageLab v5.2.1).

[2] = test system: VDR, PPARα, PPARγ, ERα, ERβ, FXR, AhR, mCAR; test: Nuclear receptor panel screening, luciferase reporter assays in HepG2 cells; format: cell-based; conditions: HepG2, 10 μM, 24 h
Procedure: To examine the specificity of compound 40 (and as a control compound 46) toward other nuclear receptors, we assessed their activity in activating eight critical nuclear receptors with cellular reporter assays at saturating concentrations (10 μM). We chose nuclear receptors that are either known to directly or indirectly regulate metabolic processes in the liver, including vitamin D receptor (VDR), peroxisome proliferator-activated receptors α and γ (PPAR α and γ), estrogen receptor α and β (ERα and β) and farnesoid X receptor (FXR) or are relevant in drug metabolism such as aryl hydrocarbon receptor (AhR) and the mice constitutive androstane receptor (mCAR).
For nuclear receptor panel screening, the HepG2 cell line (obtained by American Type Culture Collection) was maintained in DMEM (Gibco) supplemented with 10% FBS+ 1% nonessential amino acids medium and incubated at 37 °C. Plasmids for mouse constitutive androstane receptor (mCAR) and its luciferase gene reporter construct p2B6-luc have been described in Mejdrová et al.[24] Other luciferase reporter constructs have been described in Stefela et al.[25] The transient transfection experiments were performed on 48-well format plates 24 h after cell seeding (1.1 × 10^5 per well). The Lipofectamine 3000 transfection reagent was used according to the manufacturer’s instructions. […]

EC50 (LXRβ): 631 nM
Structure (SMILES): O=C1C(Nc2ccc(N3CCCCC3)cc2)=C(c2ccccc2)C(=O)N1Cc1ccccc1 [Compound 40, 1-Benzyl-3-phenyl-4-((4-(piperidin-1-yl)phenyl)amino)-1H-pyrrole-2,5-dione]
oxidative stress induction in combination with sorafenib (Hep3B cells): more efficient in inducing oxidative stress than GW3965 (2), GSK3987 (3), and AZ876 (4)
sensitivity of untransformed liver cells to combination therapy (cell viability) (BNL CL.2 cells): only very low sensitivity
induction of SOD1, GADD34 and CHOP [1]: strong induction of all factors
activation of eight other nuclear receptors [2]: no relevant activation
